Assay results taken from PubChem BioAssay AID1963433 (Molecular Pharmacology Branch, DTP, NCI, 2024).
pIC50: −log10 of the molar value. “And” between values parts separate entries of the source, which are not always exact repeats. Equal values may be shown once.

Test system: 772245-204-R-J1-PDC complex spheroid growth
Assay: Anticancer human tumor 772245-204-R-J1-PDC patient-derived rhabdomyosarcoma cell line growth inhibition [Asc]
Settings: for viability, T/C: stronger effect = lower value
Experimental: Multicellular complex tumor spheroid response to apoptosis pathway targeting inhibitors Alrizomadlin, Pelcitoclax, and Dasminapant in combination with a variety of drugs and investigational agents in selected tumor cell lines
The MDM2 inhibitor alrizomadlin, the Bcl-2/Bcl-xL inhibitor pelcitoclax, and the IAPs inhibitor dasminapant were evaluated both individually and in combination with standard of care and investigational anticancer small molecules within a complex spheroid model of solid tumors. . Complex spheroids include a stromal component modeled by human endothelial cells (HUVEC) and fibroblasts modeled by human mesenchymal stem cells (MSCs). The concentration ranges selected for each drug and investigational agent were based upon clinically achievable concentrations if the clinical Cmax of the agent was known.
Compounds. The drugs and investigational agents: alrizomadlin (APG-115; NSC831270), pelcitoclax (APG-1252; NSC835773), dasminapant (APG-1387;NSC834197), TAK-243 (NSC785004), copanlisib (NSC809693), olaparib (NSC753686), talazoparib (NSC767125), cobimetinib (NSC 768068), eltanexor (KPT-8602, NSC 794443), abemaciclib (NSC 768073), sotorasib (NSC818433), adagrasib (NSC 831453), MRTX-1133 (NSC 836407), Iadademestat (ORY1001, NSC 806812), and RMC-4630 (NSC839698), were obtained from the NCI Developmental Therapeutics Program Chemical Repository. The FDA-approved anticancer drug set is available from the Developmental Therapeutics Program at https://dtp.cancer.gov/organization/dscb/obtaining/available plates.htm. […] The stock solutions were prepared in dimethyl sulfoxide (DMSO, Sigma-Aldrich, St. Louis, MO, cat. D2650) at 800-fold the tested concentration and stored at -70 degrees C prior to their use. All drugs and investigational agents were tested over a range starting from a high concentration at or near the clinical Cmax and decreasing in half-log increments. If the clinical Cmax for an agent had not been determined, the highest concentration tested was 10 microM.
The patient-derived cancer (PDC) cell lines include five colon adenocarcinomas: 186277-243-T-J2-PDC, 616215-338-R-J1-PDC, 439559-082-T-J2-PDC, 463943-066-T-J2-PDC, and 519858-162-T-J1-PDC; three pancreatic carcinomas: 323965-272-R-J2-PDC, 521955-158-R6-J3-PDC, and 521955-158-R2-J5-PDC; two uterine sarcomas: 327498-152-R-J2-PDC and 993429-296-R-J1-PDC; two rhabdomyosarcomas: 755483-174-R-J1-PDC and 772245-204-R-J1-PDC; two soft tissue sarcomas: 126254-015-R-J1-PDC and 494315-158-R-J1-PDC; two malignant fibrous histiocytomas: 317291-083-R-J1-PDC and 596521-263-R-J1-PDC; two breast carcinomas: 171881-019-R-J1-PDC and 885512-296-R-J2-PDC; and one ovarian carcinoma: 6556581-035-R-J-PDC were obtained from the NCI PDMR, (https://pdmr.cancer.gov). The established cell lines HSSY-2 synovial sarcoma (RRID:CVCL 8719), SYO-1 synovial sarcoma (RRID:CVCL_7146), MPNST malignant peripheral neural sheath tumor were obtained from the Sloan Kettering Institute. The following established cell lines were purchased from the American Type Culture Collection (ATCC, Manassas, VA), Sor the received from the NCI repository:, PANC-1 pancreatic carcinoma (CRL-1469, RRID:CVCL_0480), OVCAR-5 ovarian carcinoma (RRID:CVCL_1628), OVCAR-8 ovarian carcinoma (RRID:CVCL_1629), , MCF-7 breast carcinoma (CRL-12584, RRID:CVCL_0031), MDA-MB-231 breast carcinoma (CRL-12532, RRID:CVCL_0062), NCI-H1876 small cell lung carcinoma (CRL-5902, RRID:CVCL_1503), NCI-H510A small cell lung carcinoma (HTB-184, RRID:CVCL_1565), NCI-H1417 (CRL-5869, RRID:CVCL_1469), and NCI-H196 small cell lung carcinoma (CRL-5823, RRID:CVCL_1509). Dr. Peter Houghton (Greehey Children's Cancer Research Institute, University of Texas Health Science Center, San Antonio, TX) provided Rh-18 rhabdomyosarcoma (RRID:CVCL_1659). Pooled donor human umbilical vein endothelial cells (HUVEC, Lonza, cat. CC-2519) and human mesenchymal stem cells (hMSC, Lonza, cat. PT-2501) were purchased from Lonza (Walkersville, MD).
Cell Culture. […]

[1] = curve of first compound, second compound 0.1 µM
[2] = curve of first compound, second compound 0.316 µM
[3] = curve of first compound, second compound 1 µM
[4] = second compound 0.1 µM, first compound 0.00316 µM
[5] = second compound 0.1 µM, first compound 0.01 µM
[6] = second compound 0.1 µM, first compound 0.0316 µM
[7] = second compound 0.1 µM, first compound 0.1 µM
[8] = second compound 0.1 µM, first compound 0.316 µM
[9] = second compound 0.1 µM, first compound 1 µM
[10] = second compound 0.316 µM, first compound 0.00316 µM
[11] = second compound 0.316 µM, first compound 0.01 µM
[12] = second compound 0.316 µM, first compound 0.0316 µM
[13] = second compound 0.316 µM, first compound 0.1 µM
[14] = second compound 0.316 µM, first compound 0.316 µM
[15] = second compound 0.316 µM, first compound 1 µM
[16] = second compound 1 µM, first compound 0.00316 µM
[17] = second compound 1 µM, first compound 0.01 µM
[18] = second compound 1 µM, first compound 0.0316 µM
[19] = second compound 1 µM, first compound 0.1 µM
[20] = second compound 1 µM, first compound 0.316 µM
[21] = second compound 1 µM, first compound 1 µM
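Also: compound exposure lasted seven days.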
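For viability, T/C in this document: 100% = DMSO vehicle control viability.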

Row | SMILES | pIC50 [1] | pIC50 [2] | pIC50 [3] | viability, T/C [4] [%] | viability, T/C [5] [%] | viability, T/C [6] [%] | viability, T/C [7] [%] | viability, T/C [8] [%] | viability, T/C [9] [%] | viability, T/C [10] [%] | viability, T/C [11] [%] | viability, T/C [12] [%] | viability, T/C [13] [%] | viability, T/C [14] [%] | viability, T/C [15] [%] | viability, T/C [16] [%] | viability, T/C [17] [%] | viability, T/C [18] [%] | viability, T/C [19] [%] | viability, T/C [20] [%] | also measured
1 | CCN1CCN(Cc2ccc(Nc3ncc(F)c(-c4cc(F)c5nc(C)n(C(C)C)c5c4)n3)nc2)CC1 + CNC(C)C(=O)NC1CN(S(=O)(=O)c2cccc(S(=O)(=O)N3CCC4CCC(C(=O)NC(c5ccccc5)c5ccccc5)N4C(=O)C(NC(=O)C(C)NC)C3)c2)CCC2CCC(C(=O)NC(c3ccccc3)c3ccccc3)N2C1=O | < 6.00 | < 6.00 | < 6.00 | 82.3 | 89.9 | 85.8 | 104 | 104 | 115 | 103 | 94.1 | 96.1 | 89.4 | 92.8 | 104 | 87.8 | 94.3 | 102 | 98.8 | 105 | pIC50 (curve of first compound, second compound 0.01 µM): < 6.00; pIC50 (curve of first compound, second compound 0.0316 µM): < 6.00; viability, T/C (second compound 0.01 µM, first compound 0.00316 µM): 104%; viability, T/C (second compound 0.01 µM, first compound 0.01 µM): 94.3%; viability, T/C (second compound 0.01 µM, first compound 0.0316 µM): 90.8%; viability, T/C (second compound 0.01 µM, first compound 0.1 µM): 99.8%; viability, T/C (second compound 0.01 µM, first compound 0.316 µM): 106%; viability, T/C (second compound 0.01 µM, first compound 1 µM): 108%; viability, T/C (second compound 0.0316 µM, first compound 0.00316 µM): 85.3%; viability, T/C (second compound 0.0316 µM, first compound 0.01 µM): 95.3%; viability, T/C (second compound 0.0316 µM, first compound 0.0316 µM): 96%; viability, T/C (second compound 0.0316 µM, first compound 0.1 µM): 94%; viability, T/C (second compound 0.0316 µM, first compound 0.316 µM): 102%; viability, T/C (second compound 0.0316 µM, first compound 1 µM): 103%; viability, T/C [21]: 104%
2 | CNC(C)C(=O)NC1CN(S(=O)(=O)c2cccc(S(=O)(=O)N3CCC4CCC(C(=O)NC(c5ccccc5)c5ccccc5)N4C(=O)C(NC(=O)C(C)NC)C3)c2)CCC2CCC(C(=O)NC(c3ccccc3)c3ccccc3)N2C1=O (configuration not stated) + Cc1c(S(C)(=O)=O)c(-c2cc(F)cc(N3CCN(c4ccc(NS(=O)(=O)c5ccc(NC(CCN6CCC(C(=O)OCCCP(=O)(O)O)CC6)CSc6ccccc6)c(S(=O)(=O)C(F)(F)F)c5)cc4)CC3)c2)c(-c2ccc(Cl)cc2)n1C(C)C | < 6.00 | 7.14 | > 8.50 | 79.9 | 66.3 | 72.7 | 64.8 | 63.5 | 63 | 56.1 | 56.5 | 55 | 45.8 | 45.2 | 44.5 | 43 | 53.5 | 37.9 | 37.1 | 35.2 | pIC50 (curve of first compound, second compound 3.16 µM): > 8.50; pIC50 (curve of first compound, second compound 10 µM): > 8.50; viability, T/C [21]: 39.1%; viability, T/C (second compound 3.16 µM, first compound 0.00316 µM): 31.4%; viability, T/C (second compound 3.16 µM, first compound 0.01 µM): 32.8%; viability, T/C (second compound 3.16 µM, first compound 0.0316 µM): 31.6%; viability, T/C (second compound 3.16 µM, first compound 0.1 µM): 29.5%; viability, T/C (second compound 3.16 µM, first compound 0.316 µM): 29.8%; viability, T/C (second compound 3.16 µM, first compound 1 µM): 25%; viability, T/C (second compound 10 µM, first compound 0.00316 µM): 32.2%; viability, T/C (second compound 10 µM, first compound 0.01 µM): 41.5%; viability, T/C (second compound 10 µM, first compound 0.0316 µM): 31.4%; viability, T/C (second compound 10 µM, first compound 0.1 µM): 25.2%; viability, T/C (second compound 10 µM, first compound 0.316 µM): 23.7%; viability, T/C (second compound 10 µM, first compound 1 µM): 22.3%
3 | C=CC(=O)N1CCN(c2nc(=O)n(-c3c(C)ccnc3C(C)C)c3nc(-c4c(O)cccc4F)c(F)cc23)C(C)C1 (configuration not stated) | – | – | – | – | – | – | – | – | – | – | – | – | – | – | – | – | – | – | – | – | viability, T/C (compound 0.0316 µM): 91.4% and 88.5% and 102%; viability, T/C (compound 0.1 µM): 97.5% and 109% and 89.4%; viability, T/C (compound 0.316 µM): 95.3% and 97% and 98%; viability, T/C (compound 1 µM): 90.4% and 101% and 97.3%; viability, T/C (compound 3.16 µM): 90.9% and 102% and 111%; viability, T/C (compound 10 µM): 79.6% and 97.6% and 109%; pIC50 (curve of compound): < 5.00
